A short description of the series: Mouse brain/plasma distribution assay for tissue levels of test compounds. It is filed as in vivo, C57b1/6 black mice. The settings on record: C57Bl/6, mouse, brain, sc; mice, subcutaneous single injection of 1 mg (10 mM DMSO solution); four hours post-administration; measured minus 2% of plasma. The method, then:
Compounds are administered subcutaneously to C57b1/6 black mice as a single injection of 1 mg using a 10 mM DMSO solution. After 2 or 4 hours, the mice are sacrificed. Trunk blood is collected into tubes with potassium-EDTA as anticoagulant and centrifuged at 5000×g for 10 min. The upper plasma phase is decanted from cellular components. Whole brain is sonicated with 20 mM Tris-HCl, 135 mM NaCl, pH 7.4 buffer, giving at 200 mg/mL (w/v) homogenate. Brain homogenate or plasma is extracted with 2 volumes of acetonitrile and clarified by centrifugation at 15,000×g for 20 min. Extracts are separated by HPLC using a Waters Alliance 2695 separations module with a Sunfire™ C18 column (3.5 micron, 2.1×50 mm) and a gradient of methanol over 15 min in a mobile phase of 0.1% formic acid. The separation is monitored by a Micromass Quattro Micro triple-quadrupole mass-spectrometric detector. Compound standardization is performed by methods analogous to those previously reported, e.g., by Zhao, M., et al. (2005) J Chromatogr B Analyt Technol Biomed Life Sci 819, 73-80; and Appels, N. M et al. (2005) Rapid Commun Mass Spectrom 19, 2187-2192. Brain concentration=measured−2% of plasma B/P ratio=brain concentration/plasma concentration

As for `Cc1ccc(NC(=O)c2ccc(CN3CCN(C)CC3)cc2)cc1Nc1nccc(-c2cccnc2)n1` [imatinib], the concentration at 4 h was less than 100 nM.
